Assay results: patent US8420675B2, “Aminotetrahydroindazoloacetic acids” (Hoffmann-La Roche Inc., priority 2008, dated 2013)
pIC50: −log10 of the molar value.

Molecular target: T1, human CRTH2 (Homo sapiens, UniProt Q9Y5Y4)
T1 construct: expressed in transfected cells
T1 sequence (Q9Y5Y4 1-395): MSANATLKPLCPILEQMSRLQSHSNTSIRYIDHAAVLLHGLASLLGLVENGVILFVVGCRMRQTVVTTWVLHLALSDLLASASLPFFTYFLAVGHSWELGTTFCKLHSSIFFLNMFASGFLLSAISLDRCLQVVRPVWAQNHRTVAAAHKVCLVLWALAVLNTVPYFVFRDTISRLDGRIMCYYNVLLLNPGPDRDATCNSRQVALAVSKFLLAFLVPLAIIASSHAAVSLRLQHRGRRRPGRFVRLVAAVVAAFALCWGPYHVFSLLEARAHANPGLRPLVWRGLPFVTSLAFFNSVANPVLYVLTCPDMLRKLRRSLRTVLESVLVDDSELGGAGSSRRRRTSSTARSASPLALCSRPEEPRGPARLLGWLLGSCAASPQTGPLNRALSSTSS
Test: Human CRTH2 Receptor Binding Assay (whole cell, [3H]ramatroban competition)
Conditions: CHO-K1 cells expressing human CRTH2 and G-alpha16; 20 nM [3H]ramatroban; 1 hour, room temperature
Description: A whole cell receptor binding assay using [^3H]ramatroban as the competing radioactive ligand was employed to evaluate the compound binding activity to human CRTH2. The radioactive ligand [^3H]ramatroban was synthesized according to Sugimoto et. al. (Eur. J. Pharmacol. 524, 30-37, 2005) to a specific activity of 42 Ci/mmol.
A cell line stably expressing human CRTH2 was established by transfecting CHO-K1 cells with two mammalian expression vectors that harbored human CRTH2 and G-alpha16 cDNAs, respectively, using FuGene® 6 transfection reagent (from Roche). Stable clones expressing CRTH2 were selected by staining each clone with BM16 (BD Pharmingen™ from BD Biosciences, a division of Becton, Dickinson and Company), which is a rat monoclonal antibody to human CRTH2. The cells were maintained as monolayer cultures in Ham's F-12 medium containing 10% fetal bovine serum, 100 units/mL penicillin, 100 μg/mL streptomycin, 2 mM glutamine, 0.5 mg/mL G418 (geneticin) for CRTH2, and 0.2 mg/mL hygromycin-B (for G-alpha 16). For whole cell receptor binding assay, the monolayer cells were rinsed once with PBS (phosphate buffered saline), dissociated using ethylenediaminetetraacetate (Versene™ EDTA Lonza Inc.), and suspended in PBS containing 10 mM MgCl2 and 0.06% BSA (bovine serum albumin) at 1.5×10^6 cells/mL.
The binding reactions (0.2 mL) were performed in 96-well plates at room temperature in PBS containing 1.5×10^5 cells, 10 mM MgCl2, 0.06% BSA, 20 nM [^3H]ramatroban, and test compound at various concentrations. After 1 hour of binding reactions, the cells were harvested on GF™/B filter microplates (microtiter plates with embedded glass fiber from PerkinElmer, Inc.) and washed 5 times with PBS using a Filtermate™ Harvester (a cell harvester that harvests and washes cells from microplates from PerkinElmer, Inc.). The radioactivities bound to the cells were determined using a microplate scintillation counter (TopCount® NXT, from PerkinElmer, Inc.) after adding 50 μL of Microscint™ 20 scintillation fluid (from PerkinElmer, Inc.) to each well of the filter plates. The radioactivity from non-specific binding was determined by replacing compound with 10 μM of 15(R)-15-methyl PGD2 (from Cayman Chemical Company) in the reaction mixtures. The radioactivity bound to the cells in the absence of compound (total binding) was determined by replacing compound with 0.25% of DMSO (dimethyl sulfoxide) in the reaction mixture. Specific binding data were obtained by subtracting the radioactivity of non-specific binding from each binding data.
The IC50 value is defined as the concentration of the tested compound that is required for 50% inhibition of total specific binding. In order to calculate the IC50 value, the percent inhibition data were determined for 7 concentrations for each compound. The percent inhibition for a compound at each concentration was calculated according to the following formula, [1-(specific binding in the presence of compound)/(total specific binding)]x100. The IC50 value was then obtained by fitting the percent inhibition data to a sigmoidal dose-response (4 parameter logistic) model in the XLfit® software Excel add-in program [from ID Business Solutions Ltd., model 205, where F(x)=(A+(B−A)/(1+((C/x)^D)))].

Structure (SMILES)	pIC50
CN([C@@H]1CCCc2c1cnn2CC(=O)O)S(=O)(=O)c1ccc(Oc2cc(F)ccc2F)c(Cl)c1 [Example 9-22a, ((R)-4-{[3-Chloro-4-(2,5-difluoro-phenoxy)-benzenesulfonyl]-methyl-amino}-4,5,6,7-tetrahydro-indazol-1-yl)-acetic acid]	7.62
CN([C@@H]1CCCc2c1cnn2CC(=O)O)S(=O)(=O)c1ccc(Oc2ccc(Cl)cc2)c(Cl)c1 [Example 9-3a, ((R)-4-{[3-Chloro-4-(4-chloro-phenoxy)-benzenesulfonyl]-methyl-amino}-4,5,6,7-tetrahydro-indazol-1-yl)-acetic acid]	7.95
CN([C@@H]1CCCc2c1cnn2CC(=O)O)S(=O)(=O)c1ccc(Oc2ccccc2)c(Cl)c1 [Example 9-13a, {(R)-4-[(3-Chloro-4-phenoxy-benzenesulfonyl)-methyl-amino]-4,5,6,7-tetrahydro-indazol-1-yl}-acetic acid]	8.02
CN([C@@H]1CCCc2c1cnn2CC(=O)O)S(=O)(=O)c1ccc(Oc2c(F)cccc2F)c(Cl)c1 [Example 9-33a, ((R)-4-{[3-Chloro-4-(2,6-difluoro-phenoxy)-benzenesulfonyl]-methyl-amino}-4,5,6,7-tetrahydro-indazol-1-yl)-acetic acid]	7.97
CN([C@@H]1CCCc2c1cnn2CC(=O)O)S(=O)(=O)c1ccc(Oc2ccc(F)cc2Cl)cc1Cl [Example 9-9a, ((R)-4-{[2-Chloro-4-(2-chloro-4-fluoro-phenoxy)-benzenesulfonyl]-methyl-amino}-4,5,6,7-tetrahydro-indazol-1-yl)-acetic acid]	7.15
CN([C@@H]1CCCc2c1cnn2CC(=O)O)S(=O)(=O)c1cnc(Oc2ccc(C#N)cc2)c(Br)c1 [Example 6-14a, ((R)-4-{[5-Bromo-6-(4-cyano-phenoxy)-pyridine-3-sulfonyl]-methyl-amino}-4,5,6,7-tetrahydro-indazol-1-yl)-acetic acid]	8.09
CN([C@@H]1CCCc2c1cnn2CC(=O)O)S(=O)(=O)c1cnc(Oc2ccc(F)cc2Cl)c(Br)c1 [Example 6-6a, ((R)-4-{[5-Bromo-6-(2-chloro-4-fluoro-phenoxy)-pyridine-3-sulfonyl]-methyl-amino}-4,5,6,7-tetrahydro-indazol-1-yl)-acetic acid]	8.17
Cc1cc(S(=O)(=O)N(C)[C@@H]2CCCc3c2cnn3CC(=O)O)ccc1Oc1ccc(F)cc1 [Example 9-35a, ((R)-4-{[4-(4-Fluoro-phenoxy)-3-methyl-benzenesulfonyl]-methyl-amino}-4,5,6,7-tetrahydro-indazol-1-yl)-acetic acid]	7.77
CN([C@@H]1CCCc2c1cnn2CC(=O)O)S(=O)(=O)c1ccc(Oc2ccc(F)cc2Cl)c(Cl)c1 [Example 9-16a, ((R)-4-{[3-Chloro-4-(2-chloro-4-fluoro-phenoxy)-benzenesulfonyl]-methyl-amino}-4,5,6,7-tetrahydro-indazol-1-yl)-acetic acid]	8.10
CN([C@@H]1CCCc2c1cnn2CC(=O)O)S(=O)(=O)c1cnc(Oc2ccc(F)cc2F)c(Br)c1 [Example 6-7a, ((R)-4-{[5-Bromo-6-(2,4-difluoro-phenoxy)-pyridine-3-sulfonyl]-methyl-amino}-4,5,6,7-tetrahydro-indazol-1-yl)-acetic acid]	8.21
Cc1cc(S(=O)(=O)NC2CCCc3c2cnn3CC(=O)O)cnc1Oc1ccc(Cl)cc1 (centres unmarked) [Example 3-1a, {4-[6-(4-Chloro-phenoxy)-5-methyl-pyridine-3-sulfonylamino]-4,5,6,7-tetrahydro-indazol-1-yl}-acetic acid]	7.46
O=C(O)Cn1ncc2c1CCCC2NS(=O)(=O)c1cnc(Oc2ccc(F)cc2)c(Br)c1 (centres unmarked) [Example 2-2a, {4-[5-Bromo-6-(4-fluoro-phenoxy)-pyridine-3-sulfonylamino]-4,5,6,7-tetrahydro-indazol-1-yl}-acetic acid]	7.51
CN([C@@H]1CCCc2c1cnn2CC(=O)O)S(=O)(=O)c1ccc(Oc2ccc(F)cc2F)c(Cl)c1 [Example 9-32a, ((R)-4-{[3-Chloro-4-(2,4-difluoro-phenoxy)-benzenesulfonyl]-methyl-amino}-4,5,6,7-tetrahydro-indazol-1-yl)-acetic acid]	8.12
CN([C@@H]1CCCc2c1cnn2CC(=O)O)S(=O)(=O)c1cnc(Oc2ccc(Cl)cc2)c(Br)c1 [Example 6-1a, ((R)-4-{[5-Bromo-6-(4-chloro-phenoxy)-pyridine-3-sulfonyl]-methyl-amino}-4,5,6,7-tetrahydro-indazol-1-yl)-acetic acid]	8.40
COc1cc(F)ccc1Oc1ncc(S(=O)(=O)N(C)[C@@H]2CCCc3c2cnn3CC(=O)O)cc1Br [Example 6-13a, ((R)-4-{[5-Bromo-6-(4-fluoro-2-methoxy-phenoxy)-pyridine-3-sulfonyl]-methyl-amino}-4,5,6,7-tetrahydro-indazol-1-yl)-acetic acid]	8.19
CN([C@@H]1CCCc2c1cnn2CC(=O)O)S(=O)(=O)c1ccc(Oc2ccc(Cl)cc2F)c(Cl)c1 [Example 9-11a, ((R)-4-{[3-Chloro-4-(4-chloro-2-fluoro-phenoxy)-benzenesulfonyl]-methyl-amino}-4,5,6,7-tetrahydro-indazol-1-yl)-acetic acid]	8.14
COc1ccc(S(=O)(=O)c2cc(C(F)(F)F)cc(S(=O)(=O)N(C)[C@@H]3CCCc4c3cnn4CCC(=O)O)c2)cc1 [Example 13-5a, 3-((R)-4-{[3-(4-Methoxy-benzenesulfonyl)-5-trifluoromethyl-benzenesulfonyl]-methyl-amino}-4,5,6,7-tetrahydro-indazol-1-yl)-propionic acid]	8.24
CN([C@@H]1CCCc2c1cnn2CC(=O)O)S(=O)(=O)c1ccc(Oc2ccc(F)cc2)c(C(F)(F)F)c1 [Example 9-41a, ((R)-4-{[4-(4-Fluoro-phenoxy)-3-trifluoromethyl-benzenesulfonyl]-methyl-amino}-4,5,6,7-tetrahydro-indazol-1-yl)-acetic acid]	8.12
O=C(O)CCn1ncc2c1CCC[C@H]2NS(=O)(=O)c1ccc(Oc2ccccc2Cl)c(Cl)c1 [Example 5-7a, 3-{(R)-4-[3-Chloro-4-(2-chloro-phenoxy)-benzenesulfonylamino]-4,5,6,7-tetrahydro-indazol-1-yl}-propionic acid]	7.28
CN([C@@H]1CCCc2c1cnn2CC(=O)O)S(=O)(=O)c1ccc(Oc2ccc(C(C)(C)C)cc2)c(Cl)c1 [Example 9-7a, ((R)-4-{[4-(4-tert-Butyl-phenoxy)-3-chloro-benzenesulfonyl]-methyl-amino}-4,5,6,7-tetrahydro-indazol-1-yl)-acetic acid]	7.90
CN([C@@H]1CCCc2c1cnn2CC(=O)O)S(=O)(=O)c1cnc(Oc2ccc(F)cc2)c(Br)c1 [Example 6-12a, ((R)-4-{[5-Bromo-6-(4-fluoro-phenoxy)-pyridine-3-sulfonyl]-methyl-amino}-4,5,6,7-tetrahydro-indazol-1-yl)-acetic acid]	8.08
O=C(O)Cn1ncc2c1CCCC2NS(=O)(=O)c1ccc(-c2cccc(O)c2)cc1 (centres unmarked) [Example 10-19a, [4-(3′-Hydroxy-biphenyl-4-sulfonylamino)-4,5,6,7-tetrahydro-indazol-1-yl]-acetic acid]	6.57
Cc1ccc(Cl)c(Oc2ccc(S(=O)(=O)N(C)[C@@H]3CCCc4c3cnn4CC(=O)O)cc2Cl)c1 [Example 9-18a, ((R)-4-{[3-Chloro-4-(2-chloro-5-methyl-phenoxy)-benzenesulfonyl]-methyl-amino}-4,5,6,7-tetrahydro-indazol-1-yl)-acetic acid]	7.87
